# Assay results as given in patent US9718782B2, “TrkA kinase inhibitors, compositions and methods thereof” (MERCK SHARP & DOHME CORP, priority 2013, dated 2017).
# Target: T1, TrkA receptor (Homo sapiens, UniProt P04629)
# T1 construct: host or cells: U2OS (PathHunter, 'TrkA p75' cells)
# Test: DiscoverX PathHunter TrkA functional assay (NGF-stimulated U2OS cells)
# Type: cell-based
# Details: U2OS cells expressing TrkA-Prolink fusion and Shc1-EA; compound 1 hour, then EC80 NGF 3 hours; luminescence
# Description: TrkA functional activity was measured using a DiscoverX PathHunter assay. In this assay, U2OS cells are express TrkA receptor as a fusion with the weakly complementing fragment of B-galactosidase, which DiscoverX calls “Prolink (PK)”; additionally, Shcl is fused with a larger fragment, which is called “Enzyme Acceptor (EA)”. Activation of the TrkA receptor, upon NGF addition, results in the kinase domain being phosphorylated, resulting in subsequent recruitment of Shcl-EA protein. That recruitment results in an active B-galactosidase enzyme that is detected by addition of a chemiluminescent substrate.
# All reagents were purchased from DiscoverX, except for the receptor agonists (NGF, BDNF, NT3) which were purchased from Peprotech. Cells were expanded and frozen into cryovials (TrkA p75 @passage 13, 1.5×10^7 cells/vial; TrkC p75 @passage 11, 1.5×10^7 cells/vial in InVitrogen Recovery Cell Freezing media), and stored in the vapor phase of liquid nitrogen, and thawed immediately before use. Thawed cells were added to a 384-well plate (BD Falcon 384-well white/clear, TC surface 120 uL assay plates (353963), 20 uL of 0.375e6 cells/mL=>7500 cells/well), and allowed to incubate overnight. Compound (10 mM starting dose: 202.5 nL compound yielding 0.81% DMSO final in total assay volume and starting doses 81 uM) was added the following morning and allowed to incubate on cells for 1 hour. Then, 5 uL EC80 of agonist (NGF for TrkA; BDNF for TrkB; NT3 for TrkC) was added and allowed to incubate for 3 hours at room temperature. DiscoverX PathHunter detection reagent is added (12 uL to plate and components diluted in parts as per kit instructions) and the plate is further incubated for 1 hour in the dark. The plate is read via luminescence on the Perkin Elmer Envision.
# T1 sequence (P04629 33-796): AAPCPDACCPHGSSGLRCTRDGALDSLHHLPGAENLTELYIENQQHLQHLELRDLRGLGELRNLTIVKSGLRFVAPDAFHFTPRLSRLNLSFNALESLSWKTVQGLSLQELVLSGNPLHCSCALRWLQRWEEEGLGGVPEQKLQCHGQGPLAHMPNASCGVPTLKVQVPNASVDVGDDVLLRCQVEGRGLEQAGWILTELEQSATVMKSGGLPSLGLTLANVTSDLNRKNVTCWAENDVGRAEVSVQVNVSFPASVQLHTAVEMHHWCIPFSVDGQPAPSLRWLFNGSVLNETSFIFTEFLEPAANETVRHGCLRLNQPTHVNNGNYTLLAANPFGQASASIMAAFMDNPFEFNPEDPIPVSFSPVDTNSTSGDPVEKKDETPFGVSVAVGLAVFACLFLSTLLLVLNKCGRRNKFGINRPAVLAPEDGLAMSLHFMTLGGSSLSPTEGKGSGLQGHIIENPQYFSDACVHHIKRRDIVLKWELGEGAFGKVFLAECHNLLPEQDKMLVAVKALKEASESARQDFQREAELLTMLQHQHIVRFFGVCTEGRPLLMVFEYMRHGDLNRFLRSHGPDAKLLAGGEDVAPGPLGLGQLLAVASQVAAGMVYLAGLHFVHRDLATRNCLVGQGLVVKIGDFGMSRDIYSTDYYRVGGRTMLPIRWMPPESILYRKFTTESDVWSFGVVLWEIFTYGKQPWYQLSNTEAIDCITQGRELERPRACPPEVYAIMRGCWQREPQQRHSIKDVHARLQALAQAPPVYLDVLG
row,IC50 [nM],SMILES
1,100,"Cn1ccnc1-c1cc(NC(=O)NC2c3ccccc3-c3ccccc32)n(C)n1 [Compound 85, 1-(9H-fluoren-9-yl)-3-[1-methyl-3-(1-methyl-1H-imidazol-2-yl)-1H-pyrazol-5-yl]urea]"
2,250,"Cc1nnc(-c2cccc(NC(=O)NC3c4ccccc4-c4ccccc43)c2)n1C [Compound 86, 1-[3-(4,5-dimethyl-4H-1,2,4-triazol-3-yl)phenyl]-3-(9H-fluoren-9-yl)urea]"
